Reference: publication PMC12254070, “Antimicrobial Peptides Design Using Deep Learning and Rational Modifications: Activity in Bacteria, Candida albicans, and Cancer Cells” (Current Microbiology, 2025)
Ends that are not written are not given here.

What follows are sequences tested on human breast adenocarcinoma (MCF-7) cells (assay: not given). Conditions: 24 h.
Assay type: cell-based
Description: (§1) The methodology proposed by Zhang et al. […] After 24 h of incubation, the wells were washed twice with PBS, and 10 μL of MTT solution was added to each well at a final concentration of 0.5 mg/mL, and the cell cultures were incubated for 4 h at 37 °C. The solution was removed from each well, and the formazan crystals were dissolved with 100 μL of Sodium Dodecyl Sulfate (0.01 M). After 16 h, absorbance was measured with a MultiSkan Go microplate reader at 570 nm. The untreated wells were used as a negative control, while wells treated with DMSO were used as a positive control for cytotoxicity. The percent viability was determined using the following equation. %viability=[…]-×100% where ABSM is the average absorbance with the treatment and ABSC is the absorbance obtained in the controls (positive and negative).

Sequence	IC50 [µM]
AGLARKWLKLPIGVLAR [OrP1]	9.1
FKLFCVAKRLPKKVL [OrP9]	> 100
IKPVVKGIKGVKNFFK [VeP2]	34.2
AGLKKLAKKLGKVVL [OrP3]	23.2
LKRLAKLLKKWIKA [OrP4M]	< 6.25
LAKRWLKLLGKLAK [OrP1M]	< 6.25
IGKVWKVAKKLIKI [OrP9M]	< 6.25
AIVKKIGKIWKNFIK [VeP2M]	21.9
AKLLGKLLRKKIGVL [OrP4]	> 100

Same assay, conditions: MTT, 24 h incubation with peptide, triplicate, non-linear regression; read-out: IC50 MCF-7

Sequence	IC50 [µM]
IKKWGKVLKKLI [VeP1M]	13.6

What follows are sequences tested on human lung adenocarcinoma (A549) cells (assay: not given). Conditions: 24 h.
Assay type: cell-based
Description: as §1

Sequence	IC50 [µM]
AGLARKWLKLPIGVLAR [OrP1]	21.7
IKPVVKGIKGVKNFFK [VeP2]	69.6
AGLKKLAKKLGKVVL [OrP3]	33.1
LAKRWLKLLGKLAK [OrP1M]	21.1
IGKVWKVAKKLIKI [OrP9M]	25.1
AIVKKIGKIWKNFIK [VeP2M]	34.9

Same assay, conditions: MTT, 24 h incubation with peptide, triplicate, non-linear regression; read-out: IC50 A549

Sequence	IC50 [µM]
IKKWGKVLKKLI [VeP1M]	35

These sequences were tested on Escherichia coli ATCC 25922 (assay: not given). Conditions: ATCC 25922, 24 h.
Assay type: cell-based
Description: (§2) The antimicrobial activity of the peptides was evaluated with S. aureus ATCC 25923, P. aeruginosa ATCC 27853, Escherichia coli ATCC 25922, Klebsiella quasipneumoniae ATCC 700603, and the yeast C. albicans ATCC 10231. The minimum inhibitory concentration (MIC) was determined following the protocol described by Wiegand et al.. Briefly, bacteria were grown overnight in Mueller–Hinton (MH) medium at 37 °C and 90 rpm, while C. albicans was grown at 30 °C in MH supplemented with 30% YPD (yeast extract, peptone, dextrose). The concentration of bacteria and C. albicans was adjusted to 10^6 CFU/mL. […] Microorganism growth was measured hourly at 600 nm for 24 h, with a 10-s shaking cycle, on a Multiskan Go microplate reader (Thermo Scientific). The experiments with bacteria were incubated at 37 °C, whereas those with C. albicans were incubated at 30 °C. Each peptide was evaluated by duplicate on 2 different days. The MIC was estimated as the minimum peptide concentration at which the microorganism had no growth. […] In all assays, untreated culture medium without peptides was included as a negative control to account for basal microbial growth. All assays were performed in two independent experiments, each conducted with two technical replicates (n = 4 per condition).

Sequence	IC50 [µM]	MBC E.c [µM]	MIC E.c [µM]
AGLARKWLKLPIGVLAR [OrP1]	5.8	12.4	12.4
FKLFCVAKRLPKKVL [OrP9]	4.9	7.5	7.5
IKPVVKGIKGVKNFFK [VeP2]	22.8	103	103
AGLKKLAKKLGKVVL [OrP3]	1.6	3.5	3.5
LKRLAKLLKKWIKA [OrP4M]	2.2	3.5	3.5
LAKRWLKLLGKLAK [OrP1M]	1.5	1.9	
IGKVWKVAKKLIKI [OrP9M]	3.2	7.8	7.8
AIVKKIGKIWKNFIK [VeP2M]	1.6	3.9	3.9
AKLLGKLLRKKIGVL [OrP4]	14.8	62.6	31.3
FKKLLKFLKWLF [VeP1]	5.8	14.1	

Same assay, conditions: Mueller–Hinton, 10^6 CFU/mL, 37 °C, 24 h, OD 600 nm; minimum concentration with no growth; n = 4

Sequence	MIC E.c [µM]
IKKWGKVLKKLI [VeP1M]	7.6

Same assay, conditions: half inhibitory concentration against the microorganism, Table S4, dose-response curves; read-out: IC50 E.c.

Sequence	IC50 [µM]
IKKWGKVLKKLI [VeP1M]	3.7

Same assay, conditions: minimum bactericidal concentration, value in brackets

Sequence	MBC E.c [µM]
IKKWGKVLKKLI [VeP1M]	7.6

What follows are sequences tested on Klebsiella quasipneumoniae ATCC 700603 (assay: not given). Conditions: ATCC 700603, 24 h.
Assay type: cell-based
Description: as §2

Sequence	IC50 [µM]	MBC K.q	MIC K.q
AGLARKWLKLPIGVLAR [OrP1]	22.4	> 99.3 µM	49.7 µM
FKLFCVAKRLPKKVL [OrP9]	93	> 119.2 (> 119.2) µM	> 119.2 (> 119.2) µM
IKPVVKGIKGVKNFFK [VeP2]	30.7	> 103 µM	103 µM
AGLKKLAKKLGKVVL [OrP3]	6	27.8 µM	13.9 µM
LKRLAKLLKKWIKA [OrP4M]	3.3	14.1 µM	7.1 µM
LAKRWLKLLGKLAK [OrP1M]	4.5	15.8 µM	15.8 µM
IGKVWKVAKKLIKI [OrP9M]	3.8	15.6 µM	15.6 µM
AIVKKIGKIWKNFIK [VeP2M]	9.2	62.6 µM	31.3 µM
AKLLGKLLRKKIGVL [OrP4]	29	> 125.2 (> 125.2) µM	
FKKLLKFLKWLF [VeP1]	5.9	28.3 µM	28.3 µM

Same assay, conditions: Mueller–Hinton, 10^6 CFU/mL, 37 °C, 24 h, OD 600 nm; minimum concentration with no growth; n = 4

Sequence	MIC K.q [µM]
IKKWGKVLKKLI [VeP1M]	30.4

Same assay, conditions: half inhibitory concentration against the microorganism, Table S4, dose-response curves; read-out: IC50 K.q.

Sequence	IC50 [µM]
IKKWGKVLKKLI [VeP1M]	6.8

Same assay, conditions: minimum bactericidal concentration, value in brackets

Sequence	MBC K.q [µM]
IKKWGKVLKKLI [VeP1M]	30.4

What follows are sequences tested on S. aureus ATCC 25923 (assay: not given). Conditions: ATCC 25923, 24 h.
Assay type: cell-based, Staphylococcus aureus
Description: as §2

Sequence	IC50 [µM]	MBC S.a	MIC S.a
AGLARKWLKLPIGVLAR [OrP1]	24.2	> 99.3 (> 99.3) µM	> 99.3 (> 99.3) µM
FKLFCVAKRLPKKVL [OrP9]		> 119.2 (> 119.2) µM	> 119.2 (> 119.2) µM
IKPVVKGIKGVKNFFK [VeP2]	53.2	> 102.9 µM	51.5 µM
AGLKKLAKKLGKVVL [OrP3]	10.1	27.8 µM	27.8 µM
LKRLAKLLKKWIKA [OrP4M]	3.4	14.1 µM	7.1 µM
LAKRWLKLLGKLAK [OrP1M]	2.3	3.9 µM	3.9 µM
IGKVWKVAKKLIKI [OrP9M]	4.5	31.1 µM	15.6 µM
AIVKKIGKIWKNFIK [VeP2M]	7.9	31.3 µM	15.6 µM
AKLLGKLLRKKIGVL [OrP4]		> 125.2 (> 125.2) µM	> 125.2 (> 125.2) µM
FKKLLKFLKWLF [VeP1]	2.1	3.5 µM	

Same assay, conditions: Mueller–Hinton, 10^6 CFU/mL, 37 °C, 24 h, OD 600 nm; minimum concentration with no growth; n = 4

Sequence	MIC S.a [µM]
IKKWGKVLKKLI [VeP1M]	15.2

Same assay, conditions: half inhibitory concentration against the microorganism, Table S4, dose-response curves; read-out: IC50 S.a.

Sequence	IC50 [µM]
IKKWGKVLKKLI [VeP1M]	8.3

Same assay, conditions: minimum bactericidal concentration, value in brackets

Sequence	MBC S.a [µM]
IKKWGKVLKKLI [VeP1M]	15.2

The sequences below were run on P. aeruginosa ATCC 27853 (assay: not given). Conditions: ATCC 27853, 24 h.
Assay type: cell-based, Pseudomonas aeruginosa
Description: as §2

Sequence	IC50 [µM]	MBC P.a [µM]	MIC P.a [µM]
AGLARKWLKLPIGVLAR [OrP1]	14.8	99.3	49.7
FKLFCVAKRLPKKVL [OrP9]	44.1	29.8	14.9
IKPVVKGIKGVKNFFK [VeP2]	21.9	102.9	51.5
AGLKKLAKKLGKVVL [OrP3]	9.6	13.9	13.9
LKRLAKLLKKWIKA [OrP4M]	9.4	3.5	3.5
LAKRWLKLLGKLAK [OrP1M]	10.1	3.9	3.9
IGKVWKVAKKLIKI [OrP9M]	4.9	1.9	
AIVKKIGKIWKNFIK [VeP2M]	5.9	15.6	7.8
AKLLGKLLRKKIGVL [OrP4]	23.3	31.3	15.7
FKKLLKFLKWLF [VeP1]	31.7	56.6	56.6

Same assay, conditions: Mueller–Hinton, 10^6 CFU/mL, 37 °C, 24 h, OD 600 nm; minimum concentration with no growth; n = 4

Sequence	MIC P.a [µM]
IKKWGKVLKKLI [VeP1M]	3.8

Same assay, conditions: half inhibitory concentration against the microorganism, Table S4, dose-response curves; read-out: IC50 P.a.

Sequence	IC50 [µM]
IKKWGKVLKKLI [VeP1M]	10

Same assay, conditions: minimum bactericidal concentration, value in brackets

Sequence	MBC P.a [µM]
IKKWGKVLKKLI [VeP1M]	3.8

The sequences below were run on human red blood cells (assay: Hemolysis assay). Conditions: human erythrocytes 1:10 in 0.9% PBS, 50 µM peptide, 37 °C, 3 h, OD 545 nm, 0.1% Triton X-100 = positive control, three replicate wells.

Sequence	% Hemolysis at 50 µM [%]
IKKWGKVLKKLI [VeP1M]	0.0

Each sequence was assayed on human red blood cells (assay: not given). Conditions: red cells of human, 3 h.

Sequence	MHC (minimum hemolytic concentration) [µM]
LKRLAKLLKKWIKA [OrP4M]	59.91
AIVKKIGKIWKNFIK [VeP2M]	68.64
AKLLGKLLRKKIGVL [OrP4]	28.98
FKKLLKFLKWLF [VeP1]	4.25

Same assay, conditions: red cells of human, 3 h, 50

Sequence	% Hemolysis at 50 µM [%]
AGLARKWLKLPIGVLAR [OrP1]	1.2
IKPVVKGIKGVKNFFK [VeP2]	3.0
AGLKKLAKKLGKVVL [OrP3]	0.0
AIVKKIGKIWKNFIK [VeP2M]	7.1

What follows are sequences tested on C. albicans ATCC 10231 (assay: not given). Conditions: ATCC 10231, 24 h.
Assay type: cell-based, Candida albicans
Description: as §2

Sequence	IC50 [µM]	MFC C.a
AGLARKWLKLPIGVLAR [OrP1]	14.8	49.7 µM
FKLFCVAKRLPKKVL [OrP9]	44.1	> 119.2 (> 119.2) µM
IKPVVKGIKGVKNFFK [VeP2]	23.7	> 102.9 µM
AGLKKLAKKLGKVVL [OrP3]	9.6	27.8 µM
LKRLAKLLKKWIKA [OrP4M]	9.4	28.2 µM
LAKRWLKLLGKLAK [OrP1M]	10.1	31.6 µM
IGKVWKVAKKLIKI [OrP9M]	4.9	
AIVKKIGKIWKNFIK [VeP2M]	5.9	31.3 µM
AKLLGKLLRKKIGVL [OrP4]	23.3	125.3 µM
FKKLLKFLKWLF [VeP1]	31.7	> 113.1 µM

Same assay, conditions: MH + 30% YPD, 10^6 CFU/mL, 30 °C, 24 h, OD 600 nm; minimum concentration with no growth; n = 4

Sequence	MIC C.a [µM]
IKKWGKVLKKLI [VeP1M]	15.2

Same assay, conditions: half inhibitory concentration against the microorganism, Table S4, dose-response curves; read-out: IC50 C.a.

Sequence	IC50 [µM]
IKKWGKVLKKLI [VeP1M]	10

Same assay, conditions: minimum fungicide concentration, value in brackets

Sequence	MFC C.a [µM]
IKKWGKVLKKLI [VeP1M]	30.3
